Literature values, collected in patent US20040112375A1, “Predicting outcome of hyperbaric oxygen therapy treatment with nitric oxide bioavailability” (priority 2002, published 2004).

In the case of “2-(2,3-dihydro-5-acetoxy-4,6,7-trimethylbenzofuranyl) acetic acid [raxofelast]”, the “fall of plasma isoprostane levels” value (diabetic men, 600 mg twice daily for seven days) is listed as 50%.
For `Cc1c(C)c2c(c(C)c1O)CC[C@@](C)(CCC[C@H](C)CCC[C@H](C)CCCC(C)C)O2` [alpha tocopherol], the “effect on isoprostane levels in biological fluids” value (in vivo) is listed as “reduce such isoprostane levels”.
